Assays:
[1] = test system: mixed lymphocyte culture (H-2d anti H-2b); assay: Proliferation of mixed lymphocyte culture (MLC), 3H-thymidine; type: cell-based
Procedure: This experimental system is an in vitro the analog of the Graft Versus Host Disease reaction.
In the present series of experiments the reaction H-2d, anti H-2b was examined. The new combination responder-stimulator. Each variant was made in a triplet. Microcultures were incubated for 4 days, then 3H-thymidine was added; then the mixture was incubated for 16 more hours, and after its transfer to the filters, the amount of 3H-thymidine was determined. H-Ile-Glu-Trp-OH was added at the beginning of the incubation in different concentrations.

Effect on liver function = type: in vivo, rabbits; conditions: 0.01% solution for 30 days
Procedure: The tests were performed in 20 rabbits, who received injections of 0.01% H-Ile-Glu-Trp-OH solution for 30 days.

CFU-S = assay: Reconstitution of CFU-S and nucleated cells in irradiated mice (4 Gy), i.v. versus i.m.; type: in vivo
Procedure: A further study of the effect of the peptide, using different methods of administration, on the dynamics of reconstitution of CFU-S, Nucleated blood Cells (NC) in the femoral bone marrow and peritheric blood (mm) of irradiated mice (4 Gy) was conducted.
Donor mice were irradiated with γ-rays in the dose of 4 Gy. Then they received the petide i.v. or i.m. 1, 2, 3, or 4 times, once a day, starting from the 1 first hour of the 3rd day after the irradiation (10 μg/kg per injection). […] At different intervals after the irradiation 10 mice were taken from each group to determine CFU-S in the bone marrow. The mice were killed, cell suspensions were prepared from the bone marrow and injected to lethally irradiated recipients. NC were counted in the femoral bone marrow and peritheric blood, and the lymphocyte percentage was found.

[2] = test system: lymphocytes in guinea pigs; assay: E-rosette formation test after trypsin treatment; type: cell-based
Excerpt: The biological action of the novel peptide was studied in guinea pigs in the conventional E-rosette formation test.

nucleated blood cells = assay: Nucleated blood cells and lymphocytes in irradiated mice (4 Gy), scheme 1; type: in vivo; design: Lymphocytes (absolute) in blood: unit not given here; conditions: for Karyocyte Count in Blood: scheme 1, 10 μg/kg i.m.
Procedure: Irradiated mice (4 Gy) received intramuscular injections of the peptide in the dose of 10 μg/kg according to 2 schemes.
a) Scheme 1: mice received the peptide immediately after irradiation, daily. […] Blood samples were taken four hours after the last peptide injection and on the 7th, 10th, and 16th day after the irradiation. Determined were total count of nucleated blood cells (NC) and lymphocyte percentage of them; nucleated cells and the CFU-S population in femoral bone marrow were counted on the 4th, 8th, and the 14th day.

[3] = Toxicity study: single 0.15 g/kg or 10 μg/kg for 5 days, cellular systems on day 14; type: in vivo, male mice
Procedure: To determine the peptide toxicity, male mice received single injections of the peptide in the dose of 0.15 g per kg body weight, which was 15,000 times as large as the therapeutic dose with favourable effect in post-irradiation regeneration of hemopoietic progenitors. The second group of mice received daily peptide injections in the dose of 10 μg/kg (the therapeutical dose) for 5 days. […] On the 14-th day after the peptide injection 10 mice from each group were killed to determine the condition of their cellular systems. Nucleated cells were counted in spleen and thymus (per mg of organ weight), bone marrow, blood (per ml). Erythrocyte count and hemoglobin level were determined.

[4] = Effect on cardio-vascular and respiratory systems, guinea pigs; type: in vivo
Procedure: (§1) The effects of H-Ile-Glu-Trp-OH on ECG and arterial pressure were studied in guinea pigs and cats.
The test was conducted in 20 guinea pigs.

[5] = Effect on arterial pressure, cats; type: in vivo
Excerpt: as §1
The influence of H-Ile-Glu-Trp-OH on arterial pressure was studied in 10 cats.

[6] = Chronic toxicity, general state and pathomorphologic investigation; type: in vivo
Excerpt: The general state of the animals, behaviour, motor function, cardio-vascular, respiratory activity, liver and kidney functions were within the range of physiologic fluctuations.

[7] = 10 mcg/kg × 5 injections, day 14

H-Ile-Glu-Trp-OH
proliferation of the allogenic lymphocytes ([1]; 0.1 μg/ml (FIG. 4)): negligible inhibition of the proliferation | proliferation of the allogenic lymphocytes ([1]; 1, 10, and 20 μg/ml (FIG. 4)): stimulation of proliferation | liver function (Effect on liver function): not to have any toxic effect on the liver function | NC content in the bone marrow (CFU-S; IM 10 μg/kg): no effect | reconstitution of the CFU-S pool (CFU-S; IM 10 μg/kg (especially 1, 2, 3 times)): positively influenced the reconstitution of the CFU-S pool earlier, beginning from day 8 | reconstitution of the CFU-S pool (CFU-S; i.v. 10 μg/kg 1, 3, or 4 times): helped better reconstitution of the CFU-S pool by day 14 only | in vitro activity relative to other known compounds [2]: 10^3 times | E-rosette formation after treatment with trypsin and compound ([2]; 10^-6 mg/ml): 61.4 | E-rosette formation after treatment with trypsin and compound ([2]; 10^-7 mg/ml): 63.9 | E-rosette formation after treatment with trypsin and compound ([2]; 10^-8 mg/ml): 64.8 | E-rosette formation after treatment with trypsin and compound ([2]; 10^-9 mg/ml): 60.2 | E-rosette formation after treatment with trypsin and compound ([2]; 10^-10 mg/ml): 37.5 | E-rosette formation after treatment with trypsin and compound ([2]; 10^-11 mg/ml): 40.0 | E-rosette formation after treatment with trypsin and compound ([2]; 10^-12 mg/ml): 34.3 | Survival (nucleated blood cells; scheme 1 (footnote of Table 7)): 100% | Karyocyte Count in Blood (nucleated blood cells; 1 Time, Day 4): 0.80 ± 0.5 × 10^3 /lmm^3 | Karyocyte Count in Blood (nucleated blood cells; 1 Time, Day 7): 3.53 ± 0.5 × 10^3 /lmm^3 | Karyocyte Count in Blood (nucleated blood cells; 1 Time, Day 10): 4.30 ± 0.3 × 10^3 /lmm^3 | Karyocyte Count in Blood (nucleated blood cells; 1 Time, Day 16): 4.49 ± 0.8 × 10^3 /lmm^3 | Karyocyte Count in Blood (nucleated blood cells; 2 Times, Day 4): 1.30 ± 0.2 × 10^3 /lmm^3 | Karyocyte Count in Blood (nucleated blood cells; 2 Times, Day 7): 3.64 ± 0.6 × 10^3 /lmm^3 | Karyocyte Count in Blood (nucleated blood cells; 2 Times, Day 10): 6.42 ± 0.7 × 10^3 /lmm^3 | Karyocyte Count in Blood (nucleated blood cells; 2 Times, Day 16): 5.96 ± 1.0 × 10^3 /lmm^3 | Karyocyte Count in Blood (nucleated blood cells; 3 Times, Day 4): 1.19 ± 0.1 × 10^3 /lmm^3 | Karyocyte Count in Blood (nucleated blood cells; 3 Times, Day 7): 5.58 ± 0.7 × 10^3 /lmm^3 | Karyocyte Count in Blood (nucleated blood cells; 3 Times, Day 10): 4.18 ± 0.8 × 10^3 /lmm^3 | Karyocyte Count in Blood (nucleated blood cells; 3 Times, Day 16): 6.32 ± 0.7 × 10^3 /lmm^3 | Karyocyte Count in Blood (nucleated blood cells; 4 Times, Day 4): 1.64 ± 0.2 × 10^3 /lmm^3 | Karyocyte Count in Blood (nucleated blood cells; 4 Times, Day 7): 4.14 ± 0.8 × 10^3 /lmm^3 | Karyocyte Count in Blood (nucleated blood cells; 4 Times, Day 10): 4.90 ± 0.7 × 10^3 /lmm^3 | Karyocyte Count in Blood (nucleated blood cells; 4 Times, Day 16): 7.32 ± 1.0 × 10^3 /lmm^3 | Lymphocytes (absolute) in blood (nucleated blood cells; scheme 1, 1 Time, Day 4): 232 | Lymphocytes, % in blood (nucleated blood cells; scheme 1, 1 Time, Day 4): 29.0 ± 2.5% | Lymphocytes (absolute) in blood (nucleated blood cells; scheme 1, 1 Time, Day 7): 1365 | Lymphocytes, % in blood (nucleated blood cells; scheme 1, 1 Time, Day 7): 38.8 ± 3.1% | Lymphocytes (absolute) in blood (nucleated blood cells; scheme 1, 1 Time, Day 10): 1118 | Lymphocytes, % in blood (nucleated blood cells; scheme 1, 1 Time, Day 10): 26.3 ± 2.9% | Lymphocytes (absolute) in blood (nucleated blood cells; scheme 1, 1 Time, Day 16): 2412 | Lymphocytes, % in blood (nucleated blood cells; scheme 1, 1 Time, Day 16): 53.6 ± 6.0% | Lymphocytes (absolute) in blood (nucleated blood cells; scheme 1, 2 Times, Day 4): 468 | Lymphocytes, % in blood (nucleated blood cells; scheme 1, 2 Times, Day 4): 36.0 ± 1.7% | Lymphocytes (absolute) in blood (nucleated blood cells; scheme 1, 2 Times, Day 7): 1260 | Lymphocytes, % in blood (nucleated blood cells; scheme 1, 2 Times, Day 7): 34.8 ± 2.1% | Lymphocytes (absolute) in blood (nucleated blood cells; scheme 1, 2 Times, Day 10): 1664 | Lymphocytes, % in blood (nucleated blood cells; scheme 1, 2 Times, Day 10): 25.5 ± 2.7% | Lymphocytes (absolute) in blood (nucleated blood cells; scheme 1, 2 Times, Day 16): 2682 | Lymphocytes, % in blood (nucleated blood cells; scheme 1, 2 Times, Day 16): 44.8 ± 6.2% | Lymphocytes (absolute) in blood (nucleated blood cells; scheme 1, 3 Times, Day 4): 432 | Lymphocytes, % in blood (nucleated blood cells; scheme 1, 3 Times, Day 4): 36.0 ± 1.3% | Lymphocytes (absolute) in blood (nucleated blood cells; scheme 1, 3 Times, Day 7): 1512 | Lymphocytes, % in blood (nucleated blood cells; scheme 1, 3 Times, Day 7): 27.1 ± 1.9% | Lymphocytes (absolute) in blood (nucleated blood cells; scheme 1, 3 Times, Day 10): 1233 | Lymphocytes, % in blood (nucleated blood cells; scheme 1, 3 Times, Day 10): 29.5 ± 3.6% | Lymphocytes (absolute) in blood (nucleated blood cells; scheme 1, 3 Times, Day 16): 2853 | Lymphocytes, % in blood (nucleated blood cells; scheme 1, 3 Times, Day 16): 44.8 ± 4.80% | Lymphocytes (absolute) in blood (nucleated blood cells; scheme 1, 4 Times, Day 4): 639 | Lymphocytes, % in blood (nucleated blood cells; scheme 1, 4 Times, Day 4): 39.0 ± 2.9% | Lymphocytes (absolute) in blood (nucleated blood cells; scheme 1, 4 Times, Day 7): 1025 | Lymphocytes, % in blood (nucleated blood cells; scheme 1, 4 Times, Day 7): 25.6 ± 3.7% | Lymphocytes (absolute) in blood (nucleated blood cells; scheme 1, 4 Times, Day 10): 1475 | Lymphocytes, % in blood (nucleated blood cells; scheme 1, 4 Times, Day 10): 30.7 ± 6.5% | Lymphocytes (absolute) in blood (nucleated blood cells; scheme 1, 4 Times, Day 16): 2847 | Lymphocytes, % in blood (nucleated blood cells; scheme 1, 4 Times, Day 16): 38.5 ± 1.40% | Survival for 30 days ([3]; 10 μg/kg daily for 5 days): Not an animal died | Karyocyte Count, Spleen ([3]; 0.15 g/kg, day 14): 2280 ± 30 10^3 /mg | Karyocyte Count, Thymus ([3]; 0.15 g/kg, day 14): 3030 ± 250 10^3 /mg | erythrocyte ([3]; 0.15 g/kg, day 14): 8100 ± 600 10^3 | hemoglobin ([3]; 0.15 g/kg, day 14): 10.8 ± 0.7 g/dL | karyocyte count bone marrow ([3]; 0.15 g/kg, day 14): 2.39 ± 0.25 × 10^7 /femur | karyocytes % ([3]; 0.15 g/kg, day 14): 62.0 ± 3.4% | karyocytes (blood) ([3]; 0.15 g/kg, day 14): 5.4 ± 0.7 10^3 | karyocytes absolute ([3]; 0.15 g/kg, day 14): 3348 | weight ([3]; 0.15 g/kg, day 14): 21-22.0 | Karyocyte Count, Spleen [3, 7]: 1760 ± 100 10^3 /mg | Karyocyte Count, Thymus [3, 7]: 2780 ± 340 10^3 /mg | erythrocyte [3, 7]: 8400 ± 200 10^3 | hemoglobin [3, 7]: 11.5 ± 0.2 g/dL | karyocyte count bone marrow [3, 7]: 1.94 ± 0.2 × 10^7 /femur | karyocytes % [3, 7]: 58.6 ± 3.6% | karyocytes (blood) [3, 7]: 10.1 ± 0.8 10^3 | weight [3, 7]: 21-22.5 | LD50 ([3]; not found): > 15,000 as large as the therapeutical one | growth of average weight by the end of the study ([3]; same as in control): 2 g | Survival for 30 days ([3]; single injection 0.15 g per kg): Not an animal died | ECG readings and arterial pressure [4]: No significant difference from control | ECG readings and arterial pressure [5]: No significant difference from control | pathomorphologic investigation (with histologic investigation of organs) ([6]; chronic toxicity): failed to find any pathologic processes | side effects ([6]; doses 10-100 times as large as the therapeutic ones): no side effects were observed

— patent US6159940A, “Method for modulating hemopoiesis” (Immunotech Developments Inc., priority 1999, dated 2000)
